Assay type in all cases: in vivo
For one experiment, the system named is Capsella bursa-pastoris. Put plainly: Post-emergence foliage spray, pot culture, fresh weight inhibition (Tables 151-206; 20 days). To be noted: Capsella bursa-pastoris, 480 h, read-out: Control effect (%) of A applied alone in corresponding dose. The method, then: (§1) The above weeds were cultivated by a pot culture method. […] Full and uniform weed seeds were selected, soaked in warm water at 25° C. for 6 hours, and germinated in a 28° C. biochemical incubator (darkness). The weed seeds that had just germinatedwere evenly placed on the surface of the soil and then covered with 0.5-1 cm soil according to the sizes of seeds.
(§2) The technical materials were all dissolved in acetone, and diluted with an aqueous solution containing 0.1% emulsifier Tween-80. The dilution is performed as required.
(§3) A ratio of the active ingredient A to the active ingredient B and amounts thereof in each group depends on the characteristics and toxicity of the two agents, as well as the main application purpose of a corresponding formulation. Based on the pre-tests in this study, the dosage of the active ingredient A and B applied alone and in combination were shown in the tables. Water containing the solvent and emulsifier same with the above groups but free of the agents was used as a blank control.
In the stage of weeds with 3˜4 leaves, the weeds were thinned out to maintain 15 weeds per pot and 45 weeds for each treatment, then continued to be cultured to 4˜5 leaves stage of grassy weeds, 5˜6 leaves stage of broadleaf weeds, and treated.
(§4) The well-cultured weeds were evenly placed on a platform with an area of 0.5 m^2, and a solution of agents was sprayed on the stems and leaves thereof by the 3WP-2000-type walking spray tower at a dosage of 450 kg/ha and at a spray pressure of 0.3 MPa. After all the solution was sprayed, the valve was closed. After 30 seconds, the door of the spray tower was opened, and the nutritional bowl was taken out. Then the valve was opened, and the spray tube was cleaned by spraying 50 ml of water.
(§5) A pot-culture method was employed. For the cultivation of weeds, please refer to the Section 1.1), and “Pesticide guidelines for laboratory bioactivity tests—herbicides”. As to a method for applying agents, please refer to the section 2.3.2), that is, a foliage treatment was employed. After the treatment, the weeds were routinely cultured in a greenhouse.
(§6) A method for investigating absolute number was employed, wherein whole seedlings of survival weeds were cut off with a blade along the soil surface, and the fresh weight of the weeds was weighed with an analytical balance. For dead weeds, the fresh weight thereof was zero.
(§7) Wherein, in the formula, X represented the fresh weight inhibition rate of the active ingredient A in a dosage of P, and Y represented the fresh weight inhibition rate of the active ingredient B in a dosage of Q.

For another experiment, the system named is Digitaria sanguinalis. Described as above. The note with it: Digitaria sanguinalis, 480 h, read-out: Control effect (%) of A applied alone in corresponding dose. The method, then:
Table 151-206: Digitaria sanguinalis, Amaranthus retroflexus, Conyza Canadensis, Capsella bursa-pastoris, Eleusine indica were collected in Huangdao of Shandong Province, Sinapis arvensis were collected in Sixian of Anhui Province, Alopecurus japonicus were collected in Tianchang of Anhui Province, Veronica didyma were collected in Siyang of Jiangsu Province.
as §1
The culture was carried out in a controllable sunlight greenhouse at 20 to 30° C., in natural light, and relative humidity of 57% to 72%.
as §2, §3
Table 1-48, 51-98, 101-148, 151-206: […] per treatment, that is, a total of 60 weeds were treated in one treatment.
Table 151-206: The agents were used for only once in the experiment. In the stage of weeds with 3˜4 leaves, the weeds were thinned out to maintain 15 weeds per pot and 45 weeds for each treatment, then continued to be cultured to 4˜5 leaves stage of grassy weeds, 5˜6 leaves stage of broadleaf weeds, and treated.
as §4, §5, §6
Table 151-206: The investigation was performed after 20 days of the treatment for only once.
Theoretical fresh weight inhibition rate of a combination of two active ingredients in each group was calculated by the Gowing method (E0=X+Y−X*Y/100), and then compared with an actually measured inhibition rate (E), thereby effect of the combination (hereafter referred to as combined effect) on weeds was evaluated: the value of E-E0, which was greater than 10%, corresponded to a synergistic effect, the value of E-E0, which was less than −10%, corresponded to an antagonistic effect, and the value of E-E0, which was from −10% to 10%, corresponded to an additional effect.

The test system of the next experiment is Echinochloa caudate. As to the kind of experiment: Post-emergence foliage spray, pot culture, fresh weight inhibition (Tables 1-48, 51-98, 101-148; 24 days). The method, then: as §1, §2, §3
(§8) In the stage of weeds with 3˜4 leaves, the weeds were thinned out to maintain 15 weeds per pot and 45 weeds for each treatment, then continued to be cultured to 5˜6 leaves stage of grassy weeds, 6˜7 leaves stage of broadleaf weeds, and treated.
as §4, §5, §6, §7

The subject of a further experiment is Echinochloa oryzoides. The experiment is described as above. The method, then: as §1, §2, §3, §8, §4, §5, §6, §7
Where [1] appears, read: A alone 75 g a.i./ha, 20 days after treatment.
Setting [2] is: A alone 150 g a.i./ha, 20 days after treatment.
The mark [3] stands for this setting: Echinochloa, 576 h, read-out: Control effect (%) of B applied alone in corresponding dose.
Where [4] appears, read: Echinochloa oryzoides, 576 h, read-out: Control effect (%) of B applied alone in corresponding dose.

Like-named read-outs stand apart in the source and are kept apart here.

Regarding `CCCCCCCCCCCOC(=O)[C@@H](C)Oc1nc(F)c(Cl)c(N)c1Cl` [Compound A94], the pest or weed control at 75 g/ha in the experiment on Capsella bursa-pastoris (A 75 g a.i./ha, 20 days) was 6.2%; with Digitaria sanguinalis (A 75 g a.i./ha, 20 days) it was 23.4%. In addition, the pest or weed control at 150 g/ha in the experiment with Capsella bursa-pastoris (A 150 g a.i./ha, 20 days) amounted to 12.6%; with Digitaria sanguinalis (A 150 g a.i./ha, 20 days), 51.7%.
Regarding `CC(C)=NOC(=O)[C@@H](C)Oc1nc(F)c(Cl)c(N)c1Cl` [Compound A130], the pest or weed control at 75 g/ha in the experiment on Capsella bursa-pastoris (setting [1]) worked out at 5.4%; in the experiment on Digitaria sanguinalis (setting [1]), 16.7%. Further, the values for the pest or weed control at 150 g/ha in the experiment on Capsella bursa-pastoris (setting [2]) and with Digitaria sanguinalis (setting [2]) were 13.2% and 36.8%, respectively.
For the molecule `C[C@@H](Oc1nc(F)c(Cl)c(N)c1Cl)C(=O)OCc1ccccc1` [Compound A141], the pest or weed control at 75 g/ha is 7.8% in the experiment with Capsella bursa-pastoris (A 75 g a.i./ha, 20 days) and 27.7% in the experiment with Digitaria sanguinalis (A 75 g a.i./ha, 20 days). Besides, the pest or weed control at 150 g/ha in the experiment on Capsella bursa-pastoris (A 150 g a.i./ha, 20 days) is 16.4%; with Digitaria sanguinalis (A 150 g a.i./ha, 20 days), 55.8%.
As to `COC(=O)[C@H](Oc1nc(F)c(Cl)c(N)c1Cl)c1ccccc1` [Compound A171], the pest or weed control at 75 g/ha worked out at 12.2% with Capsella bursa-pastoris (A 75 g a.i./ha, 20 days) and 19.2% in the experiment with Digitaria sanguinalis (A 75 g a.i./ha, 20 days). The pest or weed control at 150 g/ha is 28.9% in the experiment with Capsella bursa-pastoris (A 150 g a.i./ha, 20 days) and 31.9% in the experiment on Digitaria sanguinalis (A 150 g a.i./ha, 20 days).
Consider `CC[C@@H](Oc1nc(F)c(Cl)c(N)c1Cl)C(=O)OC` [Compound A172], for which the pest or weed control at 75 g/ha stood at 22.4% in the experiment on Capsella bursa-pastoris (A 75 g a.i./ha, 20 days) and 21.2% in the experiment on Digitaria sanguinalis (A 75 g a.i./ha, 20 days). Further, the pest or weed control at 150 g/ha with Capsella bursa-pastoris (A 150 g a.i./ha, 20 days) was 47.9%; in the experiment on Digitaria sanguinalis (A 150 g a.i./ha, 20 days), 38.9%.
On to `COC(=O)[C@@H](C)Oc1ncc(Cl)c(N)c1Cl` [Compound A173], for which the pest or weed control at 75 g/ha in the experiment with Capsella bursa-pastoris (A 75 g a.i./ha, 20 days) is 24.8%; in the experiment on Digitaria sanguinalis (A 75 g a.i./ha, 20 days) it was 38.2%. In addition, the pest or weed control at 150 g/ha was determined as 52.4% in the experiment with Capsella bursa-pastoris (A 150 g a.i./ha, 20 days) and 73.6% with Digitaria sanguinalis (A 150 g a.i./ha, 20 days).
As for `C[C@@H](Oc1nc(F)c(Cl)c(N)c1Cl)C(=O)SCc1ccco1` [Compound A211], the pest or weed control at 75 g/ha in the experiment with Capsella bursa-pastoris (A 75 g a.i./ha, 20 days) was 5.8%; in the experiment with Digitaria sanguinalis (A 75 g a.i./ha, 20 days), 31.3%. The pest or weed control at 150 g/ha with Capsella bursa-pastoris (A 150 g a.i./ha, 20 days) was determined as 14.6%; in the experiment on Digitaria sanguinalis (A 150 g a.i./ha, 20 days), 68.3%.
With `C[C@@H](Oc1ncc(Br)c(N)c1Br)C(=O)O` [Compound A212], the pest or weed control at 75 g/ha with Capsella bursa-pastoris (A 75 g a.i./ha, 20 days) was 8.6%; in the experiment with Digitaria sanguinalis (A 75 g a.i./ha, 20 days) it was 11.5%. Besides, the pest or weed control at 150 g/ha stood at 14.5% in the experiment on Capsella bursa-pastoris (A 150 g a.i./ha, 20 days) and 24.6% with Digitaria sanguinalis (A 150 g a.i./ha, 20 days).
Turning to `Cc1c(F)c(F)c(COC(=O)[C@@H](C)Oc2nc(F)c(Cl)c(N)c2Cl)c(F)c1F` [Compound A213], the pest or weed control at 75 g/ha in the experiment on Capsella bursa-pastoris (setting [1]) was 14.6%; with Digitaria sanguinalis (setting [1]), 14.9%. Also, the pest or weed control at 150 g/ha was determined as 26.8% in the experiment with Capsella bursa-pastoris (setting [2]) and 31.2% with Digitaria sanguinalis (setting [2]).
With `CCCCOCCOC(=O)[C@@H](C)Oc1nc(F)c(Cl)c(N)c1Cl` [Compound A214], the pest or weed control at 75 g/ha in the experiment with Capsella bursa-pastoris (setting [1]) is 24.8%; in the experiment with Digitaria sanguinalis (setting [1]) it was 21.9%. Further, the pest or weed control at 150 g/ha with Capsella bursa-pastoris (setting [2]) came out at 46.2%; in the experiment on Digitaria sanguinalis (setting [2]) it was 44.6%.
As for `COC(=O)[C@@H](C)Oc1ccc(Oc2cnc3cc(Cl)ccc3n2)cc1` [quizalofop-P-methyl], the “Control effect (%) of B applied alone in corresponding dose” value (shortened to “Control effect (%) of B applied alone”) was 3.4% in the experiment on Echinochloa caudate (quizalofop-P-methyl 3.75 g a.i./ha); 12.2% with Echinochloa caudate (quizalofop-P-methyl 7.5 g a.i./ha); 40.8% with Echinochloa caudate (quizalofop-P-methyl 15 g a.i./ha); 72.1% in the experiment on Echinochloa caudate (quizalofop-P-methyl 30 g a.i./ha); 5.9% in the experiment with Echinochloa oryzoides (B 3.75 g a.i./ha); 14.6% with Echinochloa oryzoides (B 7.5 g a.i./ha). Besides, the “Control effect (%) of B applied alone” value in the experiment with Echinochloa oryzoides (B 15 g a.i./ha) is on record as 38.6%; with Echinochloa oryzoides (B 30 g a.i./ha), 63.3%.
As for `CCC/C(=N\OCC)C1=C(O)CC(CC(C)SCC)CC1=O` (centres unmarked) [sethoxydim], in the experiment with Echinochloa caudate (setting [3]), the pest or weed control at 15 g/ha was 5.1%, the pest or weed control at 30 g/ha was determined as 21.5%, the pest or weed control at 60 g/ha came out at 42.6% and the pest or weed control at 120 g/ha is 61.6%. Also, in the experiment with Echinochloa oryzoides (setting [4]), the pest or weed control at 15 g/ha was found to be 5.5%, the pest or weed control at 30 g/ha came to 13.8%, the pest or weed control at 60 g/ha worked out at 35.4% and the pest or weed control at 120 g/ha is 68.4%.
As to `COC(=O)c1ccccc1S(=O)(=O)NC(=O)Nc1nc(C)cc(C)n1` [sulfometuron-methyl], in the experiment with Echinochloa caudate (setting [3]), the pest or weed control at 9.375 g/ha is 3.8%, the pest or weed control at 18.75 g/ha is 13.9%, the pest or weed control at 37.5 g/ha is 24.6% and the pest or weed control at 75 g/ha is 52.7%. In addition, in the experiment on Echinochloa oryzoides (setting [4]), the pest or weed control at 9.375 g/ha amounted to 3.2%, the pest or weed control at 18.75 g/ha amounted to 12.6%, the pest or weed control at 37.5 g/ha stood at 38% and the pest or weed control at 75 g/ha is 53.8%.
On to `CS(=O)(=O)c1ccc(C(=O)C2C(=O)CCCC2=O)c(Cl)c1COCC1CCCO1` (centres unmarked) [tefuryltrione], for which the “Control effect (%) of B applied alone” value stood at 6.8% with Echinochloa caudate (Table 81, 7.5 g a.i./ha); 13.1% with Echinochloa caudate (Table 81, 15 g a.i./ha); 41.3% with Echinochloa caudate (Table 81, 30 g a.i./ha); 65.4% in the experiment with Echinochloa caudate (Table 81, 60 g a.i./ha); 8.9% with Echinochloa oryzoides (B 7.5 g a.i./ha); 18.8% in the experiment with Echinochloa oryzoides (B 15 g a.i./ha). In addition, the “Control effect (%) of B applied alone” value with Echinochloa oryzoides (B 30 g a.i./ha) worked out at 46.1%; in the experiment with Echinochloa oryzoides (B 60 g a.i./ha), 69.3%.
As to `Cc1cc(C)n(Cc2c(S(C)(=O)=O)ccc(C(=O)c3c(C)nn(C)c3OC(=O)c3cn(C)nc3C)c2Cl)n1` [tripyrasulfone], the “Control effect (%) of B applied alone” value in the experiment on Echinochloa caudate (Table 80, 18.75 g a.i./ha) was determined as 4.6%; in the experiment on Echinochloa caudate (Table 80, 37.5 g a.i./ha) it was 16.0%; in the experiment on Echinochloa caudate (Table 80, 75 g a.i./ha), 42.6%; with Echinochloa caudate (Table 80, 150 g a.i./ha), 74.3%; in the experiment with Echinochloa oryzoides (B 18.75 g a.i./ha), 8.9%; in the experiment with Echinochloa oryzoides (B 37.5 g a.i./ha), 18.0%. In addition, the figures for the “Control effect (%) of B applied alone” value with Echinochloa oryzoides (B 75 g a.i./ha) and with Echinochloa oryzoides (B 150 g a.i./ha) were 44.6% and 75.2%, respectively.
